From ChEMBL document CHEMBL4024791, “Identification of Morpholino-2H-pyrido[3,2-b][1,4]oxazin-3(4H)-ones as Nonsteroidal Mineralocorticoid Antagonists” (J Med Chem, 2018)
≈ marks a conversion by molar mass, not a printed value.

Tests used:
[1] = Oral bioavailability in dog; format: ADME, organism-based, Canis lupus familiaris; conditions: in vivo
[2] = system: MDR1 (P-gp); test: Apparent permeability across apical to basolateral side in MDCK cells expressing human MDR1; format: ADME, cell-based, Canis lupus familiaris; conditions: dog
[3] = system: Rattus norvegicus; test: Effect on reproductive system in Wistar Han rat at 30 to 500 mg/kg, po for 14 days; format: ADME, organism-based; conditions: in vivo, 336 h
[4] = biological target: T1, Estrogen receptor (Homo sapiens, UniProt P03372); test: Binding affinity to ERalpha (unknown origin)
T1 sequence (P03372 whole entry): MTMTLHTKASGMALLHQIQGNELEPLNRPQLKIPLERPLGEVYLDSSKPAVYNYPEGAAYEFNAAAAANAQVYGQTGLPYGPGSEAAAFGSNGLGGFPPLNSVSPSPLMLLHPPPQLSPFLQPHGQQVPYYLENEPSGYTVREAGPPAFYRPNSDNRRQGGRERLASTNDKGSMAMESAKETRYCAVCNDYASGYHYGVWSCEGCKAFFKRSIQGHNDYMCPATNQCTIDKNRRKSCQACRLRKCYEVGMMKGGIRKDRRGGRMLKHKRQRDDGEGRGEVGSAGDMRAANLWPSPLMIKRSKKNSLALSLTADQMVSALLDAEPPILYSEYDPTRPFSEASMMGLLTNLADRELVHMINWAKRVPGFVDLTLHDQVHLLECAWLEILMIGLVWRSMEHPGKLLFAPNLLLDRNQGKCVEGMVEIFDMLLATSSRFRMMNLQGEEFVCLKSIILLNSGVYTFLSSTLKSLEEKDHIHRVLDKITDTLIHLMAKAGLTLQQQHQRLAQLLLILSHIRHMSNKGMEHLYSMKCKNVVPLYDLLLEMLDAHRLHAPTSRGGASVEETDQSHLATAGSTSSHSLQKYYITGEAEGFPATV

[5] = Apparent permeability across apical to basolateral side in RRCK cells; format: ADME, cell-based, Canis lupus familiaris, MDCKII-LE; conditions: dog, MDCK
[6] = Thermodynamic solubility of the compound in phosphate buffered saline at pH 6.5; format: physicochemical; conditions: read-out: Therm_solubility
[7] = biological target: T2, Glucocorticoid receptor (Homo sapiens, UniProt P04150); test: Binding affinity to GR (unknown origin) expressed in human IM9 cells; format: cell-based
T2 sequence (P04150 whole entry): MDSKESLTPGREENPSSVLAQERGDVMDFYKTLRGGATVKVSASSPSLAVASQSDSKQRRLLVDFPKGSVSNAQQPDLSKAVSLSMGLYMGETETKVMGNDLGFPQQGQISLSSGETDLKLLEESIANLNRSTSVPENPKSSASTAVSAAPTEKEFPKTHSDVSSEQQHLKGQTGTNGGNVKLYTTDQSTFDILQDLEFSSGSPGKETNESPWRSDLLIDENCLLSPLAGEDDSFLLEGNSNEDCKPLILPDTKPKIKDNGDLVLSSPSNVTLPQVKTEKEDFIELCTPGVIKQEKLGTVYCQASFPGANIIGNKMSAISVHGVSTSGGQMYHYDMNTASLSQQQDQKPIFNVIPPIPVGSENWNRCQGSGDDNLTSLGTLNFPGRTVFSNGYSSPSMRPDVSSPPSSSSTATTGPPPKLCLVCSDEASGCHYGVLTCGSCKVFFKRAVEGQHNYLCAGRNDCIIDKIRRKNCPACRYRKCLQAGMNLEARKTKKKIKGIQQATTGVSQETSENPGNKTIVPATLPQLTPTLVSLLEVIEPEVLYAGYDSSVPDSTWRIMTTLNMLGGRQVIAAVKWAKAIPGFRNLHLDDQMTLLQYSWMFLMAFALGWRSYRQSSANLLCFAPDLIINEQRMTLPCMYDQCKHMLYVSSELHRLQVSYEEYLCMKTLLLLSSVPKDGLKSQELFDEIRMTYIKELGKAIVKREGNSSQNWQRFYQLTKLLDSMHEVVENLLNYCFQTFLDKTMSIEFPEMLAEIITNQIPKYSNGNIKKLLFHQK

[8] = system: Salmonella typhimurium; test: Genotoxicity in Salmonella typhimurium by Ames test; format: toxicity; conditions: salmonella enterica subsp. enterica serovar typhimurium
[9] = Volume of distribution at steady state in rat; format: ADME; conditions: in vivo, read-out: Vdss
[10] = AUC in Wistar rat at 30 mg/kg, po administered as single dose measured up to 8 hrs post dose by LC-MS analysis; format: ADME, organism-based; set-up: time < 8 hr, dose 30 mg/kg, route oral; conditions: in vivo
[11] = AUC in Wistar rat at 100 mg/kg, po administered as single dose measured up to 8 hrs post dose by LC-MS analysis; format: ADME, organism-based; set-up: dose 100 mg/kg, time < 8 hr, route oral; conditions: in vivo
[12] = Fraction unbound in dog plasma; format: ADME, cell-free, Canis lupus familiaris
[13] = Fraction unbound in rat plasma; format: ADME, cell-free
[14] = biological target: hERG (KCNH2) (Homo sapiens, UniProt Q12809); test: Displacement of [3H]-dofetilide from human ERG at 10 uM; conditions: probe [3H]-dofetilide
[15] = biological target: T3, Mineralocorticoid receptor (Homo sapiens, UniProt P08235)
T3 sequence (P08235 whole entry): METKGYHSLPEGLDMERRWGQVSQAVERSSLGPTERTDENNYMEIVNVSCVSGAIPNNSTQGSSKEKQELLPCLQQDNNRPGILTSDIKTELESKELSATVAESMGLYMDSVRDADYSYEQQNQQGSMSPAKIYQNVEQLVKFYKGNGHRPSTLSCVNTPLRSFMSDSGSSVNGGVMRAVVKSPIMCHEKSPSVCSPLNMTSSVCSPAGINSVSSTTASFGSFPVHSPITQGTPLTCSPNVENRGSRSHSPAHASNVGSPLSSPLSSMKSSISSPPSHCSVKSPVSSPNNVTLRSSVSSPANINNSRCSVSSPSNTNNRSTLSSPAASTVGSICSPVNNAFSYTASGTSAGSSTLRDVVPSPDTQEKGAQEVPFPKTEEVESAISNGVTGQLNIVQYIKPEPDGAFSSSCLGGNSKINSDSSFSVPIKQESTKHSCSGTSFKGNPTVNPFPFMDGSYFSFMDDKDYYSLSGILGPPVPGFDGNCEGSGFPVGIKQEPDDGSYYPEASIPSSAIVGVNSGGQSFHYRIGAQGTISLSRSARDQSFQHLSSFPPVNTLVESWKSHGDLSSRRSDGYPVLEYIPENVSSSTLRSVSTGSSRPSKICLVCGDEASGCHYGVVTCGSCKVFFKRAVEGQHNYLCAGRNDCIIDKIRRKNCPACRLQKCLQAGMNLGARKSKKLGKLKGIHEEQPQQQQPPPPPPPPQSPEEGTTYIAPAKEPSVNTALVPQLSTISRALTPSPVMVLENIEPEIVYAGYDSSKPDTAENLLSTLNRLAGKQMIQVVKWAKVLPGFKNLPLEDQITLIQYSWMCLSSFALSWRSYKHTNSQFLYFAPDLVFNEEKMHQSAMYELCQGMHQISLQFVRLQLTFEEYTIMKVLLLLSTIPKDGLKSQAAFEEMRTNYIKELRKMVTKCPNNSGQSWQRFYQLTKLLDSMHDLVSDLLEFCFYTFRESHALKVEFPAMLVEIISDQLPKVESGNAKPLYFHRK
Description: Displacement of [3H]-aldosterone from human GST-tagged MR ligand binding domain after 4 hrs by liquid scintillation counting

[16] = Apparent permeability in RRCK cells; format: ADME, cell-based, Canis lupus familiaris, MDCKII-LE; conditions: dog, MDCK

Sequence of hERG (KCNH2) (Q12809 whole entry): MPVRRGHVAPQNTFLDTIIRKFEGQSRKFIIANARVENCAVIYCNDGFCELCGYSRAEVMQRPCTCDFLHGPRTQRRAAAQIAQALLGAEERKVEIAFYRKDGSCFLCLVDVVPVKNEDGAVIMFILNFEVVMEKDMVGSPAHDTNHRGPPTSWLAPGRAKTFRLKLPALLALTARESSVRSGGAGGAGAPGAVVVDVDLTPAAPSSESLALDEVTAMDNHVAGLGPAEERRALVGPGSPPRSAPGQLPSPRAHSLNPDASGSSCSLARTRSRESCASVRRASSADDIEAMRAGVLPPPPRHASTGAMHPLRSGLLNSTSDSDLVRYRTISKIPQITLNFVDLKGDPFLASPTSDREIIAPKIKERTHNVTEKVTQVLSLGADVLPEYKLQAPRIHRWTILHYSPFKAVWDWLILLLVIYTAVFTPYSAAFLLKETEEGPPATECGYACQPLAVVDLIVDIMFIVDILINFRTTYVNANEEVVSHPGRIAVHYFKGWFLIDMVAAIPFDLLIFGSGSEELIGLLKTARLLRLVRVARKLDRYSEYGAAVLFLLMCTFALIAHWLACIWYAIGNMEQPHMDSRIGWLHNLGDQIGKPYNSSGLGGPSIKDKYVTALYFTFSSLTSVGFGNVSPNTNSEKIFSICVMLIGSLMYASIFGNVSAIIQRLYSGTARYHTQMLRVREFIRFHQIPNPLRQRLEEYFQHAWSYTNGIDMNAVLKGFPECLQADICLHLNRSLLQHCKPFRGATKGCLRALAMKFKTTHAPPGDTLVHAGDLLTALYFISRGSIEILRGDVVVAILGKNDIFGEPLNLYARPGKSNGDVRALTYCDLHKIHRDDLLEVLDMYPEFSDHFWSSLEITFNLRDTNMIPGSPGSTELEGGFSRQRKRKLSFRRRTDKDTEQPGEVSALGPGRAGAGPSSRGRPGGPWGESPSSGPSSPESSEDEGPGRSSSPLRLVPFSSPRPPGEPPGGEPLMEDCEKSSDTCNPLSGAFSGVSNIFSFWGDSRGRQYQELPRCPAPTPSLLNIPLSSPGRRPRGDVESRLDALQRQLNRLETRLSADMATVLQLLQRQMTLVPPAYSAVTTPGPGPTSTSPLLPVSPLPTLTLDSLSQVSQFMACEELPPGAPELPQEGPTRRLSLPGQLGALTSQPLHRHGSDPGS

bioavailability [1] [%]	Papp A→B [2] [×10⁻⁶ cm/s]	IC50 [4] [nM]	Papp A→B [5] [×10⁻⁶ cm/s]	solubility thermodynamic [6] [µM]	IC50 [7] [nM]	Vd [9] [L/kg]	AUC at 8 h [10] [ng·h/mL]	AUC at 8 h [11] [ng·h/mL]	fraction unbound [12]	fraction unbound [13]	IC50 [15] [nM]	Papp [16] [×10⁻⁶ cm/s]	SMILES	Activity [3]	Activity [8]	inhibition at 10 µM [14] [%]
65	24.9	> 10000	45.9	17 (≈ 5.53 µg/mL)	597	6.15	2850	9410	0.136	0.15			C[C@@H]1CN(c2ccc3c(n2)NC(=O)CO3)[C@H](c2ccccc2)CO1	Non-Toxic	Non-Toxic	
											401	29.3	O=C1COc2ccc(N3CCOC[C@H]3c3ccccc3)cc2N1			5
